Earlier results, collected in patent publication US20040018228A1, “Compositions and methods for reducing scar tissue formation” (Afmedica, Inc., priority 2000, published 2004).

How the values were obtained:
keloids = settings: in vivo

## CO[C@H]1C[C@@H]2CC[C@@H](C)[C@@](O)(O2)C(=O)C(=O)N2CCCC[C@H]2C(=O)O[C@H]([C@H](C)C[C@@H]2CC[C@@H](O)[C@H](OC)C2)CC(=O)[C@H](C)/C=C(\C)[C@@H](O)[C@@H](OC)C(=O)[C@H](C)C[C@H](C)/C=C/C=C/C=C/1C [sirolimus]
other
  solubility in aqueous solutions: not to be readily soluble in aqueous solutions

## C=CC[C@@H]1/C=C(\C)C[C@H](C)C[C@H](OC)[C@H]2O[C@@](O)(C(=O)C(=O)N3CCCC[C@H]3C(=O)O[C@H](/C(C)=C/[C@@H]3CC[C@@H](O)[C@H](OC)C3)[C@H](C)[C@@H](O)CC1=O)[C@H](C)C[C@@H]2OC [tacrolimus]
keloids
  treatment of keloids: effectively treat keloids
